Laboratory results taken from patent US20090221624A1, “4-AMINOQUINOLINE COMPOUNDS FOR TREATING VIRUS-RELATED CONDITIONS” (priority 2005, published 2009).

Columns and labels:
[1] = system: HCV replicon (Clone A cells, Huh7, subgenomic hepatits C virus RNA); test: HCV Neo screening assay (HCV replicon, NPTII ELISA); assay type: cell-based, hepatitis C virus; settings: for EC50 / inhibition at 25 µM: Hepatitis C virus, Huh-7; for EC50: Secondary Data, HCV; for inhibition at 25 µM: primary screening, 25 μM final concentration, 24 hours, percent inhibition of viral replication, read-out: HCV Inh; for HCV TI: therapeutic index CC50/EC50, HCV
RSV minigenome = test: RSV minigenome-dependent β-galactosidase expression assay (RSV β-Gal); assay type: cell-based, respiratory syncytial virus; settings: for EC50 / inhibition at 25 µM: human respiratory syncytial virus; for EC50: Secondary Data, RSV, read-out: RSV EC50; for inhibition at 25 µM: primary screening, 25 μM final concentration, 24 hours, percent inhibition of viral replication, read-out: RSV Inh; for RSV TI: therapeutic index CC50/EC50, RSV
WNV (WN-hRuPac cells) = test: WNV antiviral activity, WN-hRuPac cells, Renilla luciferase; assay type: cell-based, West Nile virus; settings: for EC50 / inhibition at 25 µM: West Nile virus; for EC50: Secondary Data, WNV, read-out: WNV EC50; for inhibition at 25 µM: primary screening, 25 μM final concentration, 24 hours, percent inhibition of viral replication, read-out: WNV Inh; for WNV TI: therapeutic index CC50/EC50, WNV
YFV (YF-hRuPac cells) = test: microbe, parasite or virus in culture; assay type: cell-based, yellow fever virus; settings: for inhibition at 25 µM / EC50: Yellow fever virus; for inhibition at 25 µM: 24 h, read-out: YFV Inh; for EC50: read-out: YFV EC50
DNG (D2-hRuPac cells) = test: DNG antiviral activity, D2-hRuPac cells, Renilla luciferase; assay type: cell-based, Dengue fever virus; settings: Dengue virus, secondary screening
EBOV minigenome = test: microbe, parasite or virus in culture; assay type: cell-based, Ebola virus; settings: Zaire ebolavirus; for inhibition at 25 µM: 24 h, read-out: EBOV Inh; for EC50: read-out: EBOV EC50
SINV (SR19-F-luc cells) = test: SINV antiviral activity, SR19-F-luc cells, Firefly luciferase; assay type: cell-based; settings: Sindbis virus; for inhibition at 25 µM: primary screening, 25 μM final concentration, 24 hours, percent inhibition of viral replication, read-out: SINV Inh; for EC50: secondary screening, SR19-F-luc cells

SMILES | inhibition at 25 µM [1] [%] | EC50 (RSV minigenome) [µM] | inhibition at 25 µM (RSV minigenome) [%] | RSV TI (RSV minigenome) | EC50 (WNV (WN-hRuPac cells)) [µM] | inhibition at 25 µM (WNV (WN-hRuPac cells)) [%] | WNV TI (WNV (WN-hRuPac cells)) | inhibition at 25 µM (YFV (YF-hRuPac cells)) [%] | EC50 (YFV (YF-hRuPac cells)) [µM] | EC50 (DNG (D2-hRuPac cells)) [µM] | inhibition at 25 µM (EBOV minigenome) [%] | inhibition at 25 µM (SINV (SR19-F-luc cells)) [%] | EC50 (SINV (SR19-F-luc cells)) [µM] | CC50 (in vitro; DNG CC50) [µM] | CC50 (in vitro; EBOV CC50) [µM] | CC50 (in vitro; RSV CC50) [µM] | CC50 (in vitro; SINV CC50) [µM] | CC50 (in vitro; WNV CC50) [µM] | CC50 (in vitro; YFV CC50) [µM] | YFV TI (YFV (YF-hRuPac cells)) | also measured
Cc1cc(Nc2cccc(Cl)c2C)c2cccc(C)c2n1 [Compound 65] | 114 | 1.95 | 96.6 | 38.46 | 5.72 | 80.6 | 13.11 | 76.3 | ≥ 75 | ≥ 75 | 81.8 | 72.2 | ≥ 75 | ≥ 75 | ≥ 75 | ≥ 75 | ≥ 75 | ≥ 75 | ≥ 75 |  | EC50 [1]: 8.48 µM; HCV TI [1]: 1.53; EC50 (EBOV minigenome): 48.8 µM; CC50 (in vitro; HCV CC50): 13 µM
CCOC(=O)c1cnc2ccc(F)cc2c1NCCCN(C)C [Compound 66] | 39.6 | 44.8 | 17.6 | 1.44 | 22.9 | 40.8 | 2.82 | 11.4 | ≥ 75 | 51.4 | 84.1 | 14.9 | 9.53 | 64.6 | 64.6 | 64.6 | 64.6 | 64.6 | 64.6 | 0.86 | EC50 (EBOV minigenome): 14.1 µM
CCOC(=O)c1cnc2c(OC)cccc2c1NCC(C)O (stereo not shown) [Compound 69] | 19.8 | 2.21 | 98.3 | 15.67 | 13.7 | 44.6 | 2.53 | 70.1 | 25.7 | 44 | 64.4 | 60.9 | 37.1 | 34.6 | 34.6 | 34.6 | 34.6 | 34.6 | 34.6 | 1.35 | EC50 (EBOV minigenome): 57.6 µM; CC50 (in vitro; HCV CC50): ≥ 75 µM
CCOC(=O)c1cnc2c(OC)cccc2c1NC(C)c1ccccc1 (stereo not shown) [Compound 71] | 80.1 | 4.47 | 93.3 | 11.03 | 13.9 | 24.7 | 3.55 | 71.2 | 58.5 | 37.2 | 90.1 | 49.1 | 5.52 | 49.3 | 49.3 | 49.3 | 49.3 | 49.3 | 49.3 | 0.84 | EC50 [1]: 8.95 µM; HCV TI [1]: 4.42; EC50 (EBOV minigenome): 29.5 µM; CC50 (in vitro; HCV CC50): 39.6 µM
CCOC(=O)c1cnc2c(C(F)(F)F)cccc2c1Nc1ccc(S(=O)(=O)Nc2nc(C)cc(C)n2)cc1 [Compound 72] | -24.8 | 41.7 | 50.3 | 1.8 | 13.3 | 83.2 | 5.64 | 90 | 20.9 | 12 | 86 | -4.36 | 37.1 | ≥ 75 | ≥ 75 | ≥ 75 | ≥ 75 | ≥ 75 | ≥ 75 | 3.59 | EC50 (EBOV minigenome): 17.3 µM; CC50 (in vitro; HCV CC50): ≥ 75 µM
COC(=O)c1ccc2nc(C)cc(Nc3cccc(O)c3)c2c1 [Compound 73] | 89.5 | 28.9 | 63.1 | 2.5 | 25.8 | 31.5 | 2.8 | 51.8 | 40.3 | 16.8 | 62.1 | 80.8 | 5.99 | 72.3 | 72.3 | 72.3 | 72.3 | 72.3 | 72.3 | 1.79 | EC50 [1]: 2.32 µM; HCV TI [1]: 15.17; CC50 (in vitro; HCV CC50): 35.2 µM
CCOC(=O)c1cnc2ccc(F)cc2c1Nc1ccc(S(=O)(=O)Nc2nc(C)cc(C)n2)cc1 [Compound 74] | 39.4 | ≥ 75 | 26.6 |  | 9.72 | 90.5 | 7.72 | 93.5 | 9.68 | 4.08 | 76.1 | 19.4 | ≥ 75 | ≥ 75 | ≥ 75 | ≥ 75 | ≥ 75 | ≥ 75 | ≥ 75 | 7.75 | 
CCOC(=O)c1cnc2c(C)cc(C)cc2c1NCCCN(C)C [Compound 75] | 122 | 5.79 | 92.7 | 4.04 | 9 | 79.2 | 2.6 | 69.1 | 7.48 | 6.09 | 95.1 | 83.8 | 11 | 23.4 | 23.4 | 23.4 | 23.4 | 23.4 | 23.4 | 3.13 | EC50 [1]: 0.75 µM; HCV TI [1]: 14.4; EC50 (EBOV minigenome): 7.15 µM; CC50 (in vitro; HCV CC50): 10.8 µM
